Test results as given in article PMC6403271, “Characterization, mechanism of action and optimization of activity of a novel peptide-peptoid hybrid against bacterial pathogens involved in canine skin infections” (Scientific Reports, 2019).
In brackets after ≈: the same amount, converted by molar mass. Read-outs that look alike come from different tables or passages of the source. Marks after values point to notes of the source that are not given here. Square brackets hold non-standard residues; d marks the D form. Peptide text beside a SMILES is read from it. N(1-naphthylmethyl)Gly = O=C(O)CNCc1cccc2ccccc12; 2Nal = N[C@@H](Cc1ccc2ccccc2c1)C(=O)O; d1Nal = N[C@H](Cc1cccc2ccccc12)C(=O)O; N(4-MeBn)Gly = Cc1ccc(CNCC(=O)O)cc1; dNle = CCCC[C@@H](N)C(=O)O; Nle = CCCC[C@H](N)C(=O)O; NBuGly = CCCCNCC(=O)O

How the values were obtained:
[1] = test system: P. aeruginosa (26314); type: cell-based, Pseudomonas aeruginosa
Method in brief: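 Canine clinical isolate P. aeruginosa 26314 tested by CLSI broth microdilution at 5 × 10^5 CFU/mL in Mueller Hinton broth II against 2-fold peptide dilutions of 1-64 μg/ml. MIC = lowest concentration without visible growth after 18 h at 37 °C; triplicates on two days.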

[2] = test system: MRSP C22963; type: cell-based, Staphylococcus pseudintermedius
Method in brief: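 Broth microdilution per CLSI M31-A3 on canine clinical isolates plus reference MRSP C22963, MSSA and P. aeruginosa 26314; 5 × 10^5 CFU/mL in MHB II with two-fold dilutions from 1 to 64 µg/ml. MIC = lowest concentration without visible growth after 18 hours at 37 °C; triplicates on two days.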

[3] = test system: Corynebacterium auriscanis, 31551; type: cell-based; details: 18 h
Source text: (§1) For antibacterial spectrum the following strains were used: Corynebacterium auriscanis, 31551, (54 C6, dog, ear, 2013); Enterococcus faecalis, 27404, (17 C7, dog, wound, 2011); Enterococcus faecium, 30951, (24 C1, dog, ear, 2013); Streptococcus canis, 26740-1, (14 H1, dog, ear, 2010); Staphylococcus aureus, 27266, (16 G9, dog, skin, 2010); Staphylococcus aureus, 27266, (16 G9, dog, skin, 2010); Staphylococcus pseudintermedius 22963, (3 B9, dog, 2007). Acinetobacter baumannii, 27065, (16 D1, dog, wound, 2010); E. coli, 30235, 23 A6, dog, wound, 2012; Klebsiella pneumoniae, 26233, (11 H5, dog, wound, 2010); Pasteurella canis, 31096, (24 C8, dog, skin, 2013); Proteus mirabilis, 25178, (9 A4, dog, ear, 2009); Pseudomonas aeruginosa 26314, 12 C5, dog, urine, 2010). MIC determination was performed by broth microdilution according to the Clinical and Laboratory Standard Institute (CLSI, […]-A3, 2008)[62]. In brief, each bacterial strain was diluted to concentration of 5 × 10^5 CFU/mL in Mueller Hinton broth II (MHB II) media (Oxoid) and added to a two-fold serial dilution of peptides and peptide-peptoid hybrids concentrations ranging from 1 to 64 μg/ml in 96-well plates (Nunc Internationals, Rochester, NY). The MICs were determined as a lowest concentration showing no visible growth after incubation for 18 hours at 37 °C. Experiments were performed in triplicates on two different days.

[4] = test system: Klebsiella pneumoniae, 26233; type: cell-based; details: 26233, 18 h
Source text: as §1

[5] = test system: Enterococcus faecalis, 27404; type: cell-based; details: 27404, 18 h
Source text: as §1

[6] = test system: Streptococcus canis, 26740-1; type: cell-based; details: 18 h
Source text: as §1

[7] = test system: Proteus mirabilis, 25178; type: cell-based; details: 25178, 18 h
Source text: as §1

[8] = test system: Enterococcus faecium, 30951; type: cell-based; details: 30951, 18 h
Source text: as §1

[9] = test system: Acinetobacter baumannii, 27065; type: cell-based; details: 27065, 18 h
Source text: as §1

[10] = test system: Pasteurella canis, 31096; type: cell-based
Source text: as §1

[11] = test system: S. pseudintermedius strains; type: cell-based, Staphylococcus pseudintermedius; details: for MIC S. pseudintermedius strain 26071 / MIC S. pseudintermedius strain 26092-2 / MIC S. pseudintermedius strain 26959 / MIC S. pseudintermedius strain 27364 / MIC S. pseudintermedius strain 27382 / MIC S. pseudintermedius strain 31524 / MIC S. pseudintermedius strain 33228 / MIC S. pseudintermedius strain 35890 / MIC S. pseudintermedius strain 37526-1 / MIC S. pseudintermedius strain 37535-1 / MIC S. pseudintermedius strain 38637: 18 h
Description: Activity of B1 was tested on 50P. aeruginosa isolates and 57S. pseudintermedius isolates (including 7 MRSP) that had been isolated in the diagnostic laboratory Sund Vet Diagnostik (University of Copenhagen) from various infections in dogs between 2009 and 2011. Representative MRSP (C22963), MSSA, and P. aeruginosa (26314) were used for testing the first set of B1 analogues.
For testing the selectivity of 23 and 26 against clinical isolates of S. pseudintermedius vs S. aureus the following strains were used.
MIC determination was performed by broth microdilution according to the Clinical and Laboratory Standard Institute (CLSI, M31-A3, 2008)[62]. In brief, each bacterial strain was diluted to concentration of 5 × 10^5 CFU/mL in Mueller Hinton broth II (MHB II) media (Oxoid) and added to a two-fold serial dilution of peptides and peptide-peptoid hybrids concentrations ranging from 1 to 64 µg/ml in 96-well plates (Nunc Internationals, Rochester, NY). The MICs were determined as a lowest concentration showing no visible growth after incubation for 18 hours at 37 °C. Experiments were performed in triplicates on two different days.

[12] = test system: E. coli, 30235; type: cell-based, Escherichia coli; details: 30235, 18 h
Source text: as §1

Row | Compound | Minimum Inhibitory Concentration P. aeruginosa (26314) ([1]; Table 1) [µg/mL] | MIC Staphylococcus pseudintermedius ([2]; 18 h) [µg/mL] | MIC Corynebacterium auriscanis [3] [µg/mL] | MIC Klebsiella pneumoniae [4] [µg/mL] | MIC Enterococcus faecalis [5] [µg/mL] | MIC Streptococcus canis [6] [µg/mL] | MIC Proteus mirabilis [7] [µg/mL] | MIC Enterococcus faecium [8] [µg/mL] | MIC Acinetobacter baumannii [9] [µg/mL] | MIC Pasteurella canis ([10]; 31096, 24 C8, dog, skin, 2013) [µg/mL] | MIC S. pseudintermedius strain 26071 [11] [µg/mL] | MIC S. pseudintermedius strain 26092-2 [11] [µg/mL] | MIC S. pseudintermedius strain 26959 [11] [µg/mL] | MIC S. pseudintermedius strain 27364 [11] [µg/mL] | MIC S. pseudintermedius strain 27382 [11] [µg/mL] | MIC S. pseudintermedius strain 31524 [11] [µg/mL] | MIC S. pseudintermedius strain 33228 [11] [µg/mL] | MIC S. pseudintermedius strain 35890 [11] [µg/mL] | MIC S. pseudintermedius strain 37526-1 [11] [µg/mL] | MIC E. coli [12] [µg/mL] | also measured
1 | CCCC[C@H](NC(=O)[C@H](CCCCN)NC(=O)[C@H](CCCCN)NC(=O)[C@@H](N)CCCCN)C(=O)N[C@@H](Cc1ccc2ccccc2c1)C(=O)N[C@@H](Cc1ccccc1)C(=O)N[C@@H](Cc1ccc2ccccc2c1)C(N)=O [Compound 23, Lys-Lys-Lys-Nle-(2-Nal)Ala-Phe-(2-Nal)Ala] (H-KKK[Nle][2Nal]F[2Nal]-NH2) | 8 | 4 (≈ 3.79 µM) | 8 (≈ 7.57 µM) | >64 | >64 | 16 (≈ 15.1 µM) | >64 | 64 (≈ 60.6 µM) | 64 (≈ 60.6 µM) | > 64 | 8 (≈ 7.57 µM) | 8 (≈ 7.57 µM) | 4 (≈ 3.79 µM) | 2 (≈ 1.89 µM) | 4 (≈ 3.79 µM) | 8 (≈ 7.57 µM) | 2 (≈ 1.89 µM) | 2 (≈ 1.89 µM) | 1 to 2 | 32 (≈ 30.3 µM) | Minimum Inhibitory Concentration MRSP C22963 ([2]; 18 h): 2 to 4 µg/mL; MIC S. pseudintermedius strain 37535-1 [11]: 16 µg/mL (≈ 15.1 µM); MIC S. pseudintermedius strain 38637 [11]: 16 µg/mL (≈ 15.1 µM)
2 | CCCC[C@@H](NC(=O)[C@H](CCCCN)NC(=O)[C@H](CCCCN)NC(=O)[C@@H](N)CCCCN)C(=O)N[C@H](Cc1cccc2ccccc12)C(=O)N[C@H](Cc1ccccc1)C(=O)N[C@H](Cc1cccc2ccccc12)C(N)=O [Compound 26, Lys-Lys-Lys-nle-(1-Nal)ala-phe-(1-Nal)ala] (H-KKK[dNle][d1Nal][dF][d1Nal]-NH2; N-terminus assumed) | 8 | 4 (≈ 3.79 µM) | 32 (≈ 30.3 µM) | >64 | 64 (≈ 60.6 µM) | >64 | >64 | >64 | >64 | > 64 | 4 (≈ 3.79 µM) | 4 (≈ 3.79 µM) | 4 (≈ 3.79 µM) | 2 (≈ 1.89 µM) | 2 (≈ 1.89 µM) | 32 (≈ 30.3 µM) | 2 (≈ 1.89 µM) | 4 (≈ 3.79 µM) | 4 (≈ 3.79 µM) | 32 (≈ 30.3 µM) | Minimum Inhibitory Concentration MRSP C22963 ([2]; Table 1): 4 to 8 µg/mL; MIC S. pseudintermedius strain 37535-1 [11]: 16 µg/mL (≈ 15.1 µM); MIC S. pseudintermedius strain 38637 [11]: 8 µg/mL (≈ 7.57 µM)
3 | CCCCN(CC(=O)N[C@@H](CCCCN)C(=O)N(CC(=O)N(CC(=O)N(CC(N)=O)Cc1cccc2ccccc12)Cc1ccc(C)cc1)Cc1cccc2ccccc12)C(=O)[C@H](CCCCN)NC(=O)[C@@H](N)CCCCN [B1, Lys-Lys-(NBu)Gly-Lys-(N1-Nal)Gly-(N4-MeBn)Gly-(N1-Nal)Gly] (H-KK[NBuGly]K[N(1-naphthylmethyl)Gly][N(4-MeBn)Gly][N(1-naphthylmethyl)Gly]-NH2) | – | 2 (≈ 1.87 µM) | 4 (≈ 3.74 µM) | >64 | 64 (≈ 59.8 µM) | 4 (≈ 3.74 µM) | >64 | 16 (≈ 14.9 µM) | 64 (≈ 59.8 µM) | – | – | – | – | – | – | – | – | – | – | 64 (≈ 59.8 µM) | Minimum Inhibitory Concentration P. aeruginosa (26314) ([1]; 26314, 18 h): 8 to 16 µg/mL; Minimum Inhibitory Concentration MRSP C22963 ([2]; Table 1): 2–4^b µg/ml; MIC Pasteurella canis ([10]; 18 h): 8 µg/mL (≈ 7.47 µM); MICs against a panel of 57 S. pseudintermedius isolates from canine infections ([11]; irrespective of methicillin resistance (7 MRSP, 50 MSSP)): 2 to 4 µg/mL
